In ChEMBL document CHEMBL1201862, “PubChem BioAssay data set” (2004):
The source made the active and inactive calls.

Legend:
[1] = biological target: Muscarinic acetylcholine receptor M1 (Rattus norvegicus, UniProt P08482); experiment: rat M1 positive allosteric modulator potency, dose response, cell-based, calcium mobilization, CHO-K1, ACh EC20 (AID 2425); format: functional
Bcl-2-related protein A1 [2] = biological target: T1, Bcl-2-related protein A1 (Mus musculus, UniProt Q07440); experiment: Bfl-1 inhibitors blocking BH3 peptide binding, confirmation, biochemical, TR-FRET, mouse Bfl-1 (AID 621);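 also: TR-FRET binding of GST-Bfl-1 to FITC-labelled Bid peptide via terbium antibody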
T1 sequence (Q07440 whole entry): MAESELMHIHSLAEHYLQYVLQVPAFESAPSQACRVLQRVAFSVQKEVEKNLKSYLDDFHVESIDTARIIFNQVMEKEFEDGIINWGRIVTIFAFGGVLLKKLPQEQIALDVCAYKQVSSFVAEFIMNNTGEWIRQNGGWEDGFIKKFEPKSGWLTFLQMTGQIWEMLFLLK

Bcl-2-related protein A1 [3] = biological target: T1, Bcl-2-related protein A1; experiment: Bfl-1 inhibitors, primary screen, biochemical, fluorescence polarization, FITC-Bid, mouse (AID 432)
[4] = biological target: T2, Heat shock factor protein 1 (Mus musculus, UniProt P38532); experiment: HSF1 potentiators in luciferase reporter cells, confirmation, cell-based, NIH3T3, luminescence, dose retest (AID 435004); format: functional;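 also: stress induced by proteasome inhibitor MG132 added 30 min after compound; luciferase reporter driven by HSF1 response element in NIH3T3 cells; actives raise luminescence as potentiators of the MG132 stress response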
T2 sequence (P38532 whole entry): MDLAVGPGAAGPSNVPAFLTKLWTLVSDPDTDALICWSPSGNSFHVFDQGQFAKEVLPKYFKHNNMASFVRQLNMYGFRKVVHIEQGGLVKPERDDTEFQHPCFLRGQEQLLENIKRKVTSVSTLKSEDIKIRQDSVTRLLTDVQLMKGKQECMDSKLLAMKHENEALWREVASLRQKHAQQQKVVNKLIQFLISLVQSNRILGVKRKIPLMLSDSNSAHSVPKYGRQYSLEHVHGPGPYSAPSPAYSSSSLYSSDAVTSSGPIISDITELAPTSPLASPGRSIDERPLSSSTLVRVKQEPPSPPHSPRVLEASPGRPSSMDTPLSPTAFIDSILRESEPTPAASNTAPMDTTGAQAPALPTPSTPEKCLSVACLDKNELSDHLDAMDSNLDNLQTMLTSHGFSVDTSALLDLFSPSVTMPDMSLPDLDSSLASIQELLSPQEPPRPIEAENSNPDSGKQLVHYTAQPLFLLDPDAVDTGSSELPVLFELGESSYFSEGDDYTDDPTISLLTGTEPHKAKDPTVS

Leucine aminopeptidase = biological target: T3, Leucine aminopeptidase (Plasmodium falciparum 3D7, UniProt Q8IL11); experiment: P. falciparum M17LAP inhibitors, primary screen, biochemical, fluorogenic H-Leu-NHMec substrate, 1536-well (AID 1619); format: functional
T3 sequence (Q8IL11 whole entry): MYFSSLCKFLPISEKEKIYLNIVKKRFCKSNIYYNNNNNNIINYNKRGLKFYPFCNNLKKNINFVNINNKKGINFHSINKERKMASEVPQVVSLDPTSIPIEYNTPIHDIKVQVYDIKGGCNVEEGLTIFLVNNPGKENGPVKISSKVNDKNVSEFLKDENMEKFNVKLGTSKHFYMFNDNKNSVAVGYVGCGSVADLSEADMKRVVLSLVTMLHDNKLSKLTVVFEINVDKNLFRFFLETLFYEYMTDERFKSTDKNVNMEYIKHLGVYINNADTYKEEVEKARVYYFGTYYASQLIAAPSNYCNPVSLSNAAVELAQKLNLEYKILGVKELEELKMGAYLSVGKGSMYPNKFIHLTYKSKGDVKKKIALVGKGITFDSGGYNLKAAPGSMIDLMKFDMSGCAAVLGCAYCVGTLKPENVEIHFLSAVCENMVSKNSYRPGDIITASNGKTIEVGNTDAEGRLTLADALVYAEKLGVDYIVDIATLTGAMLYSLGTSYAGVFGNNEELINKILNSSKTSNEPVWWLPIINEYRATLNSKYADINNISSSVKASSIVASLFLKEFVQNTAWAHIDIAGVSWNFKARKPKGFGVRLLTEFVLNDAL

Aspartyl aminopeptidase [5] = biological target: T4, Aspartyl aminopeptidase (Plasmodium falciparum 3D7, UniProt Q8I2J3); experiment: Counterscreen for inhibitors of M1 and M17 aminopeptidases: QFRET-based biochemical high throughput dose response assay for inhibitors of the Plasmodium falciparum M18 Aspartyl Aminopeptidase (PFM18AAP). [Related PubChem assays: 1619 (Screening assay (M17LAP inhibitors).), 1445 (Screening assay (M1AAP inhibitors).)]
T4 sequence (Q8I2J3 whole entry): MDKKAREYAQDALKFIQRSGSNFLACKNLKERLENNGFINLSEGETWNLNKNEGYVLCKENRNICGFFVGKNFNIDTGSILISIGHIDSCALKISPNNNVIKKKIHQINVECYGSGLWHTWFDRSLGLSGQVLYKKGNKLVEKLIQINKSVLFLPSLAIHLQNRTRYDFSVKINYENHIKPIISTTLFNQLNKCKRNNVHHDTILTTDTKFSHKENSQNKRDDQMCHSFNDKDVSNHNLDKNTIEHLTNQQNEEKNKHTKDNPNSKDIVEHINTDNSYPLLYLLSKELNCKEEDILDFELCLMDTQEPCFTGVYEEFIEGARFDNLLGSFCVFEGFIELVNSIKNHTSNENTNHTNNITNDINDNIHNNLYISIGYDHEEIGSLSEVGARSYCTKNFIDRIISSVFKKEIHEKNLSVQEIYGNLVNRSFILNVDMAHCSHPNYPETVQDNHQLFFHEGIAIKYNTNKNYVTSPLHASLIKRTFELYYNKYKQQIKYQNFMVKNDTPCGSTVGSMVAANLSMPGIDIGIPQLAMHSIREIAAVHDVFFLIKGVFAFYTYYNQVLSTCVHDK

Procathepsin L [6] = biological target: T5, Procathepsin L (Homo sapiens, UniProt P07711); experiment: cathepsin L inhibitors, dose response, counter-screen for M1/M17 aminopeptidase inhibitor project, biochemical, QFRET, 1536-well (AID 2214)
[7] = cytotoxicity in HPDE-C7 cells, cell-based, fluorescence, HTS (AID 430); format: functional; conditions: Homo sapiens
[8] = cytotoxicity in KRAS-transformed pancreatic duct cells, primary screen, cell-based, fluorescence, HTS (AID 431); format: functional; conditions: Homo sapiens;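 also: cell line used: HPDE-C7K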
Cytochrome P450 2C19 = Cytochrome P450 2C19 (Homo sapiens, UniProt P33261); experiment: qHTS Assay for Inhibitors and Substrates of Cytochrome P450 2C19. [Related pubchem assays: 410 ]; format: ADME; conditions: read-out: Potency
NADPH oxidase 1 = NADPH oxidase 1 (Homo sapiens, UniProt Q9Y5S8); experiment: Late-stage luminescence-based cell-based dose response assay to identify inhibitors of NADPH oxidase 1 (NOX1): Purchased analogs 2.; format: functional
[9] = biological target: Photoreceptor-specific nuclear receptor (Homo sapiens, UniProt Q9Y5X4); experiment: NR2E3 inverse agonists, dose response, biochemical, TR-FRET (AID 463256); format: functional
[10] = biological target: Peroxisome proliferator-activated receptor gamma/Nuclear receptor corepressor 2 (Homo sapiens, UniProt P37231+Q9Y618); experiment: Counterscreen for NR2E3 inverse agonists: TR-FRET-based biochemical high throughput dose response assay to identify inverse agonists of the interaction between peroxisome proliferator-activated receptor gamma (PPARg) and nuclear receptor co-repressor 2 (NCOR2).; format: functional
[11] = biological target: T2, Heat shock factor protein 1; experiment: inhibition of MG132-induced HSE-luciferase signal, confirmation, cell-based, NIH3T3, luminescence, dose retest (AID 2382); format: functional;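 also: NIH3T3 fibroblasts with HSF1-driven luciferase reporter stressed by proteasome inhibitor MG132; luminescence from HSF1-driven luciferase expression after 8 hours of MG132 stress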
[12] = HepG2 cell cytotoxicity, dose response, cytotoxicity control for non-replicating M. tuberculosis project (AID 489018); format: functional; conditions: Mycobacterium tuberculosis
[13] = THP-1 cell cytotoxicity, dose response, cytotoxicity control for non-replicating M. tuberculosis project (AID 489025); format: functional
Nonstructural protein 1 = Nonstructural protein 1 (Influenza A virus, UniProt Q194T2); format: functional, Influenza A virus (A/California/07/2009(H1N1))
[14] = Vero E6 cell cytotoxicity, dose response, cytotoxicity control for non-replicating M. tuberculosis project, secondary assay (AID 492998); format: functional, VeroE6; conditions: Vero C1008
Vero [15] = experiment: cells; format: functional; conditions: Chlorocebus sabaeus
INS1 = experiment: beta cell apoptosis inhibitors, cytokine rescue, dose response, luminescence, retest (AID 449756); format: functional, cell-based; conditions: Rattus norvegicus;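 also: cell death triggered by IL-1 beta plus TNF-alpha plus IFN-gamma mixture; protective hits raise ATP signal compared with cytokine alone wells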
[16] = Luminescence-based dose response cell-based high throughput screening assay for cytotoxic compounds using the IEC-6 intestinal epithelial cell line. [Related pubchem assays: 1858 (Summary AID.), 1825 (Counterscreen.), 1907 (Confirmation screen.)]; format: functional
cells = format: functional
BJ [17] = experiment: cytotoxicity toward BJ-TERT-LT-ST fibroblasts, dose response, cell-based, RAS-independent, luminescence (AID 1935); format: functional; conditions: Homo sapiens;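 also: BJ fibroblasts immortalized with TERT plus LT and ST oncogenes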
Vero [18] = experiment: cells; format: functional, cell-based; conditions: Chlorocebus sabaeus
BJ [19] = experiment: cells; format: functional, cell-based; conditions: Homo sapiens
BJ [20] = experiment: cytotoxicity toward Ras-transformed BJeLR fibroblasts, dose response, cell-based, alamar blue fluorescence, cherrypicked samples (AID 2631); format: functional; conditions: Homo sapiens;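 also: confirmatory dose-response assay in RAS-dependent BJ fibroblasts engineered with TERT, LT and ST, with cytotoxicity read by fluorescence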
BJ [21] = experiment: cytotoxicity toward BJ-TERT fibroblasts, dose response, cell-based, RAS-independent, luminescence (AID 1933); format: functional; conditions: Homo sapiens
[22] = cytotoxicity toward DRD oncogenic fibroblasts, dose response, cell-based, non-viral oncogenic, luminescence (AID 1934); format: functional; conditions: Homo sapiens
[23] = biological target: T6, Microphthalmia-associated transcription factor (Homo sapiens, UniProt O75030); experiment: TRPM1 promoter luciferase signal decrease, dose response, MITF inhibitor project, cell-based, SK-MEL-5, cherry-picked, set 3 (AID 493073); format: functional
T6 sequence (O75030 whole entry): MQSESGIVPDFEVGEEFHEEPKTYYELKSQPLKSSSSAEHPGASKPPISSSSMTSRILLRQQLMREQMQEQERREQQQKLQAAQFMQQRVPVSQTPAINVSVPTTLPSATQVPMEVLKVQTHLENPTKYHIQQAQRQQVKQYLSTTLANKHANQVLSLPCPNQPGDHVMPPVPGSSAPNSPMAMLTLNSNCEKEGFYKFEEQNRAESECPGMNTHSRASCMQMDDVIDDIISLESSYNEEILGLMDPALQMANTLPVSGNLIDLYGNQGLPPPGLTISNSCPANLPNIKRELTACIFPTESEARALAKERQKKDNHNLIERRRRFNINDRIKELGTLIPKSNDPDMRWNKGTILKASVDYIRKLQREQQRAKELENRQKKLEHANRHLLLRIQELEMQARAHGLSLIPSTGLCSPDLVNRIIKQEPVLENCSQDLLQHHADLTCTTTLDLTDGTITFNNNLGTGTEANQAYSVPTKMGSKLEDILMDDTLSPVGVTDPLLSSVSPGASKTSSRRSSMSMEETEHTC

Aspartyl aminopeptidase [24] = biological target: T4, Aspartyl aminopeptidase
Vero [25] = experiment: host cell cytotoxicity of antiviral hits, dose response, cytotoxicity control for West Nile virus antiviral project, secondary assay (AID 1650); format: functional; conditions: Chlorocebus sabaeus
Vero [26] = experiment: West Nile virus antiviral activity, cell-based, CPE readout (AID 1621); format: functional; conditions: Chlorocebus sabaeus
[27] = NIH-3T3 fibroblast cytotoxicity, dose response, cytotoxicity control, cell-based, fluorescence, Alamar Blue, secondary assay (AID 2327); format: functional;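 also: NIH-3T3 mouse fibroblasts cultured with fluconazole at 8 µg/mL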
[28] = C. albicans growth with fluconazole, confirmation, fluorescence, retest (AID 2467); format: functional, cell-based
Paired box protein Pax-8 = Paired box protein Pax-8 (Homo sapiens, UniProt Q06710); experiment: inhibitors of PAX8-driven TPO luciferase reporter, dose response, RMG-I cells, cherry-pick (AID 687027); format: functional, cell-based;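 also: luciferase reporter driven by Pax8 target thyroperoxidase promoter measured by SteadyGlo luminescence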
Procathepsin L [29] = biological target: T5, Procathepsin L

T5 sequence (P07711 whole entry): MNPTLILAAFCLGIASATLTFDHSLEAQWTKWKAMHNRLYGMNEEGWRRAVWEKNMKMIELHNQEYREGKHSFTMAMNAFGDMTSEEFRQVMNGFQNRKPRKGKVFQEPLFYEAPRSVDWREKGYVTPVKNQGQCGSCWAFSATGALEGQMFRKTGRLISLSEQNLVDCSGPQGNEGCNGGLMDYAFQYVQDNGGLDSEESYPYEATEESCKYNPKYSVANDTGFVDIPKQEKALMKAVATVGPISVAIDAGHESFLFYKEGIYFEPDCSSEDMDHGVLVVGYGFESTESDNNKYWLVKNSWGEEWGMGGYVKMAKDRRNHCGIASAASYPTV
Sequence of Cytochrome P450 2C19 (P33261 whole entry): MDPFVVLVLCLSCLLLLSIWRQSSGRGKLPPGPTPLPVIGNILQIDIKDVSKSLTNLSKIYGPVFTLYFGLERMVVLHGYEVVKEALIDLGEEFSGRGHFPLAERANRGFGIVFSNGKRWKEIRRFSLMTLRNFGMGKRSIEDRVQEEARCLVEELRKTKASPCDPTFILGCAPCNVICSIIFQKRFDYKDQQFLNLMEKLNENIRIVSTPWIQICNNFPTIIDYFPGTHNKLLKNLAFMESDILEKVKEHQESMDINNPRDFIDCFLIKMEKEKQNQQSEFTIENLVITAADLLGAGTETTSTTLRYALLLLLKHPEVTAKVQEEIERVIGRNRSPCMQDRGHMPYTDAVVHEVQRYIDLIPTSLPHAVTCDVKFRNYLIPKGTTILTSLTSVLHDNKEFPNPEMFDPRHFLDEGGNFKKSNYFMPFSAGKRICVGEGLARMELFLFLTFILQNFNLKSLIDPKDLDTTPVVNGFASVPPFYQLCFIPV
Sequence of Muscarinic acetylcholine receptor M1 (P08482 whole entry): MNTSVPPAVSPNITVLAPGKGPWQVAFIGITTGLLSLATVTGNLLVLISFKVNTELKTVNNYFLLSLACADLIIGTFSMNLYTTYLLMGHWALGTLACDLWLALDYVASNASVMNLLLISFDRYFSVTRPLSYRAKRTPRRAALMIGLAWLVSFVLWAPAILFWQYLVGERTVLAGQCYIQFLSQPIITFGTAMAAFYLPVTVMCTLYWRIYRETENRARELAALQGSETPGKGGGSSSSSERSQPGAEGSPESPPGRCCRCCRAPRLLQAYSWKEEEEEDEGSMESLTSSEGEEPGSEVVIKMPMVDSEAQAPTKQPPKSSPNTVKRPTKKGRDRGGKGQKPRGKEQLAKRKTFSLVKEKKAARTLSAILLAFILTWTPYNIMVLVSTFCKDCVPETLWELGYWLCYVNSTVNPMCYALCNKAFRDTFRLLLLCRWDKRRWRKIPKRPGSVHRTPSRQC
Sequence of Peroxisome proliferator-activated receptor gamma/Nuclear receptor corepressor 2 (P37231 whole entry): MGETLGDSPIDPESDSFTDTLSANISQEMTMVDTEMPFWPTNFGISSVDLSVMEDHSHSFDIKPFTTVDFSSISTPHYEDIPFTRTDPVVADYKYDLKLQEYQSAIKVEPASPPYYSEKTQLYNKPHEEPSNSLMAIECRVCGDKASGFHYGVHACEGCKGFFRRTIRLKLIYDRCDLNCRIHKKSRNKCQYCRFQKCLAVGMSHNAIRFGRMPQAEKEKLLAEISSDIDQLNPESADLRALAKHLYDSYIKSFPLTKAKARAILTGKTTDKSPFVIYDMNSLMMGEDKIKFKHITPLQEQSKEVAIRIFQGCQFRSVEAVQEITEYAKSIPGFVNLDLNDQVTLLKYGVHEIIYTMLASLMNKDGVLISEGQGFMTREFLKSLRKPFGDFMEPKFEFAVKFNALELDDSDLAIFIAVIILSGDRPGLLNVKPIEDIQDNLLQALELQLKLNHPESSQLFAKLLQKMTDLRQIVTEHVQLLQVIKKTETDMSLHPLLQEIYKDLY
Sequence of Peroxisome proliferator-activated receptor gamma/Nuclear receptor corepressor 2 (Q9Y618 whole entry): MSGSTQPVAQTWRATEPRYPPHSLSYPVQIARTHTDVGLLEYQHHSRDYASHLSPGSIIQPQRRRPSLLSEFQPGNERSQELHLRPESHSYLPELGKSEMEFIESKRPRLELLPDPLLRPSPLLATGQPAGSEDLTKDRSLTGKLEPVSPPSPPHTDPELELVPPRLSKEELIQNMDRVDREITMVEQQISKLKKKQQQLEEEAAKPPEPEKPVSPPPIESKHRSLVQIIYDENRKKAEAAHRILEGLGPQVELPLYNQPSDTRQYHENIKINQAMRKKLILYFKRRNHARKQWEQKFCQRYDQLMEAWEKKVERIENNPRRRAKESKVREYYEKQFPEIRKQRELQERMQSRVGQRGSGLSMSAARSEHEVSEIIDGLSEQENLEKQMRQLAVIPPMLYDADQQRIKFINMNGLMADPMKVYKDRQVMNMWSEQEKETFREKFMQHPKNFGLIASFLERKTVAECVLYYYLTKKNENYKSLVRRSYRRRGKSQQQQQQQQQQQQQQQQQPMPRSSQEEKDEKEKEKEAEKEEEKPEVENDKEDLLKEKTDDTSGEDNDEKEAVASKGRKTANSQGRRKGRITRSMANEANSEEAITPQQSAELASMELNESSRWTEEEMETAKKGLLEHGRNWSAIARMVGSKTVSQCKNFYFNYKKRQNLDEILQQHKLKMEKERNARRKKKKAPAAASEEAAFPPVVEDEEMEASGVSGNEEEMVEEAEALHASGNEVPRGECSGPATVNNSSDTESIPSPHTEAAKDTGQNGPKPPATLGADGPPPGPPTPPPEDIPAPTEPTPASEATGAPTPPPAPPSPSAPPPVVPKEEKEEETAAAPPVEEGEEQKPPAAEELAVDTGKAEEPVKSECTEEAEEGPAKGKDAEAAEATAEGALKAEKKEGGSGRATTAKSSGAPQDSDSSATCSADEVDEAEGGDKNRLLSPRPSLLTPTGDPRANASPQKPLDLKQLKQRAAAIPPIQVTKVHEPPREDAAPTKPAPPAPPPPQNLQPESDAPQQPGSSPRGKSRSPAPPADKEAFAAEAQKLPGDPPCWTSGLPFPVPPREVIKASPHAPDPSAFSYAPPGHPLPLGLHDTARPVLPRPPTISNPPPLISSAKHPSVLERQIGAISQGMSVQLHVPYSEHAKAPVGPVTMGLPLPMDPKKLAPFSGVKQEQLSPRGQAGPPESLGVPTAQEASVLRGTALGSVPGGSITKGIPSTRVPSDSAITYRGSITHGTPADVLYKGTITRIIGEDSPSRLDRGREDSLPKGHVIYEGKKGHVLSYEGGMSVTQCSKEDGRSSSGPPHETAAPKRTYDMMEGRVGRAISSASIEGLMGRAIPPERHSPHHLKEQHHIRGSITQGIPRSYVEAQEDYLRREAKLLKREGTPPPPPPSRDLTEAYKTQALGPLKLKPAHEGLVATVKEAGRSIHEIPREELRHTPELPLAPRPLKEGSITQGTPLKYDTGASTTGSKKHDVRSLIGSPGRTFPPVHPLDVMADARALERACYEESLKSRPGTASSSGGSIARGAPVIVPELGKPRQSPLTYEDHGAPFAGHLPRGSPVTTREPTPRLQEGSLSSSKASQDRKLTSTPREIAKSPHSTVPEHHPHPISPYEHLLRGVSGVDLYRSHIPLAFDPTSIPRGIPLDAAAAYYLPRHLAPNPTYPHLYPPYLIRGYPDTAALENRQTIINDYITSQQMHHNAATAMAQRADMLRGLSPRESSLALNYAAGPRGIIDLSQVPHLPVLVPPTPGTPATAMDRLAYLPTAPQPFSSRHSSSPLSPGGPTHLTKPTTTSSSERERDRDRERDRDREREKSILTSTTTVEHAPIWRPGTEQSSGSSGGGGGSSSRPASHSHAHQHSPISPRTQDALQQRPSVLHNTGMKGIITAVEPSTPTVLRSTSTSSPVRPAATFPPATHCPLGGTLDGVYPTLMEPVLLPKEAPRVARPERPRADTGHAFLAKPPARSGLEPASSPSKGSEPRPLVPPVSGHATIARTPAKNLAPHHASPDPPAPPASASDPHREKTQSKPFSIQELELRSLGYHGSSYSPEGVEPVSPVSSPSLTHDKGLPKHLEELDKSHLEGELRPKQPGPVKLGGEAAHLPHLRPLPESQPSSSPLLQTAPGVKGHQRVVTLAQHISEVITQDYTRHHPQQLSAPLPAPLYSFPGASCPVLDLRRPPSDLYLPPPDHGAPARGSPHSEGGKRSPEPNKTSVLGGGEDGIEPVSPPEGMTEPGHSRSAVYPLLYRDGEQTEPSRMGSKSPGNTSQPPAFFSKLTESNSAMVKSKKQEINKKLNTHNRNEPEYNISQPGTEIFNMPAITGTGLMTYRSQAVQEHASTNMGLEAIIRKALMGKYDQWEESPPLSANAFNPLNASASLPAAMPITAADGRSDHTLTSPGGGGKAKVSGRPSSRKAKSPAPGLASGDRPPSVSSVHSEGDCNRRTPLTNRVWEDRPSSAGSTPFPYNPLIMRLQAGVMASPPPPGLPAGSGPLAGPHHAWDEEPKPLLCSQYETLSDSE
Sequence of Photoreceptor-specific nuclear receptor (Q9Y5X4 whole entry): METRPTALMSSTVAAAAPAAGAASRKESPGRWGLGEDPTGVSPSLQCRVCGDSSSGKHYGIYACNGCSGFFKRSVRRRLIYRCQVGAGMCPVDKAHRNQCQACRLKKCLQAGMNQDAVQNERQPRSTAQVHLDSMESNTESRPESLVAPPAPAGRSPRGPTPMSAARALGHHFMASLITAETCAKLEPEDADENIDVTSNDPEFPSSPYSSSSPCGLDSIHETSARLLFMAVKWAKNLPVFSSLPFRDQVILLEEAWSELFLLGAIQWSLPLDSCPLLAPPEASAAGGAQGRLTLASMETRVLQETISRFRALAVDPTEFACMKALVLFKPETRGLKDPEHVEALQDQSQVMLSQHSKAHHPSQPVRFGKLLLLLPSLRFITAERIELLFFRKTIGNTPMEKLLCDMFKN
Sequence of Nonstructural protein 1 (Q194T2 whole entry): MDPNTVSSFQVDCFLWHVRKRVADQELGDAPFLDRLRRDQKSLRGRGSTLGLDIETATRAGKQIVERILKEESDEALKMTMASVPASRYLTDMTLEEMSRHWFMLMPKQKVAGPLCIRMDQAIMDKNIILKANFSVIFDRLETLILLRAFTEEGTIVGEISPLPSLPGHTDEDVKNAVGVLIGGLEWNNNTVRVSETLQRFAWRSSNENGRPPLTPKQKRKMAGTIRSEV

## Cc1cc(NC(=O)CS(=O)(=O)c2cn(Cc3cccc(F)c3)c3ccccc23)no1
[1]
  EC50: 5.32 µM (active)

## Brc1ccc(-c2nnc3ccc(N4CCN(c5ccccc5)CC4)nn23)cc1
Bcl-2-related protein A1 [2]
  IC50: > 100 µM (not active)
Bcl-2-related protein A1 [3]
  IC50: 8.88 µM (active)

## O=C(CSc1nc(O)cc(=O)n1-c1ccccc1)Nc1ccc2c3c(cccc13)CC2
[4]
  EC50: > 260 µM (inactive)
Leucine aminopeptidase
  IC50: 1.45 µM (active)
Aspartyl aminopeptidase [5]
  IC50: > 73.5 µM (not active)
Procathepsin L [6]
  IC50: > 59.6 µM (not active)

## O=S(=O)(c1ccc(Cl)c(Cl)c1)N1CCc2nc3ccccc3n2CC1
[7]
  EC50: 0.49 µM (active)
[8]
  EC50: > 20 µM (not active)

## O=c1cc(-c2ccc(O)cc2O)oc2ccccc12
Cytochrome P450 2C19
  AC50: 6.31 µM (inconclusive)

## C=C(NNc1c(F)c(F)nc(F)c1F)c1ccc(-n2cncn2)cc1
NADPH oxidase 1
  IC50: > 17 µM (not active)

## O=C(CCCCCn1c(=S)[nH]c2cc3c(cc2c1=O)OCO3)N1CCN(C(=O)c2ccco2)CC1
[9]
  IC50: 3.68 µM (active)
[10]
  IC50: > 39.8 µM (not active)
[11]
  EC50: > 195 µM (not active)

## COc1ccc(C(=O)N/N=C(\C)c2ccccn2)cc1OC
[12]
  CC50: 9.24 µM (active)
[13]
  CC50: 0.822 µM (active)
Nonstructural protein 1
  IC50: 2.93 µM (active)
[14]
  CC50: 2.88 µM (active)
Vero [15]
  CC50: 2.83 µM (active)
INS1
  AC50: 0.584 µM (active)
[16]
  IC50: 0.937 µM (active)
cells
  IC50: 3.01 µM (active)
BJ [17]
  EC50: 4.38 µM (active)
Vero [18]
  IC50: > 25 µM (active)
BJ [19]
  EC50: 2.07 µM (active)
BJ [20]
  EC50: 1.23 µM (active)
BJ [21]
  EC50: 9.02 µM (active)
[22]
  EC50: 5.69 µM (active)

## BrC(=C\c1ccccc1)/C=N/n1cnnc1
[23]
  AC50: 7.26 µM (active)
Aspartyl aminopeptidase [24]
  IC50: 1.89 µM (active)
Vero [25]
  CC50: 6.4 µM (active)
Vero [26]
  IC50: 39.2 µM (active)
[27]
  EC50: > 150 µM (inconclusive)
[28]
  EC50: 1.01 µM (active)
Paired box protein Pax-8
  AC50: 3.84 µM (active)
Procathepsin L [29]
  IC50: > 59.6 µM (not active)
